In PMC4537572, “Cellobionic acid utilization: from Neurospora crassa to Saccharomyces cerevisiae” (Biotechnology for Biofuels, 2015):

Key:
[1] = biological target: T1, S. cerevisiae gluconokinase (YDR248C) (Saccharomyces cerevisiae, UniProt Q03786); assay: gluconokinase assay, HPAEC of products; assay type: biochemical; conditions: 1 mM gluconate, 5 mM ATP, 0.2 μM enzyme, 1x PBS, 30 °C, 30 min
T1 construct: full ORF with C-terminal His6-tag, expressed in and purified from S. cerevisiae
T1 sequence (Q03786 1-193): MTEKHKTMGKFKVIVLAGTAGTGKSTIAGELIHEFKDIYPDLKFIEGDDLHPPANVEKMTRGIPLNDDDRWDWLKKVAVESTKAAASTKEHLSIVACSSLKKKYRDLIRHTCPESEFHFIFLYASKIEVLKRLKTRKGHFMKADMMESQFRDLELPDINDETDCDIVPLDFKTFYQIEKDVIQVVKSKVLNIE

CAP (NCU09425) = CAP (NCU09425) (Neurospora crassa, UniProt Q7S0S2); conditions: 2 mM cellobionate, 0.5 μM enzyme, 1x PBS, 30 °C, 30 min
CBT-1 (NCU05853) = biological target: T2, CBT-1 (NCU05853) (Neurospora crassa, UniProt Q7S555); assay: yeast cell-based uptake assay, HPAEC of remaining sugar; conditions: pH 6.0, 30 °C, 30 min; 5 mM MES, 100 mM NaCl; S. cerevisiae cells expressing the transporter
T2 construct: expressed in S. cerevisiae from plasmid pRS426_NCU05853
From the text: yeast cell-based uptake assay, HPAEC of remaining sugar on CBT-1 (NCU05853) | only NCU05853 […] was capable of transporting cellobionic acid into the cell

Sequence of CAP (NCU09425) (Q7S0S2 whole entry): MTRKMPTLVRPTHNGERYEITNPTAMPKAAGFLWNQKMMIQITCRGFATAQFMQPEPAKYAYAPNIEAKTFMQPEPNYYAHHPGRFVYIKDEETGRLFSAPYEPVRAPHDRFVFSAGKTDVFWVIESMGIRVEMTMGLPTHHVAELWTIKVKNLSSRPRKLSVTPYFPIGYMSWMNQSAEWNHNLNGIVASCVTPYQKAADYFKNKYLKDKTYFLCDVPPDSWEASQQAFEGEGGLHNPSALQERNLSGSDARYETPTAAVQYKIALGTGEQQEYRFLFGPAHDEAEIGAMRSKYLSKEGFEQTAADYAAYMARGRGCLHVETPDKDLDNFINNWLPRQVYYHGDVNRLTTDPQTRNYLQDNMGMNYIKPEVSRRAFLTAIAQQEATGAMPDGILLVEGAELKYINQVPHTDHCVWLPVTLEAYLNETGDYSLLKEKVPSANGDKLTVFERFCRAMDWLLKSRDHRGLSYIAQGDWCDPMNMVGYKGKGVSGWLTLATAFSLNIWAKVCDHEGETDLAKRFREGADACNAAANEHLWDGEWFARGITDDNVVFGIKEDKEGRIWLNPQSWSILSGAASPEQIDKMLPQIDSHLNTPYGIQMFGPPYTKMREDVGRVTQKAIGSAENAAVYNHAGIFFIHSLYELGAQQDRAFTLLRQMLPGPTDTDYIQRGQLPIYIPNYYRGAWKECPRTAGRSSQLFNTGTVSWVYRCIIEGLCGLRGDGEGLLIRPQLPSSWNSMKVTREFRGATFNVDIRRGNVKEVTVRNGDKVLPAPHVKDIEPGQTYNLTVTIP
T2 sequence (Q7S555 entry or part of it): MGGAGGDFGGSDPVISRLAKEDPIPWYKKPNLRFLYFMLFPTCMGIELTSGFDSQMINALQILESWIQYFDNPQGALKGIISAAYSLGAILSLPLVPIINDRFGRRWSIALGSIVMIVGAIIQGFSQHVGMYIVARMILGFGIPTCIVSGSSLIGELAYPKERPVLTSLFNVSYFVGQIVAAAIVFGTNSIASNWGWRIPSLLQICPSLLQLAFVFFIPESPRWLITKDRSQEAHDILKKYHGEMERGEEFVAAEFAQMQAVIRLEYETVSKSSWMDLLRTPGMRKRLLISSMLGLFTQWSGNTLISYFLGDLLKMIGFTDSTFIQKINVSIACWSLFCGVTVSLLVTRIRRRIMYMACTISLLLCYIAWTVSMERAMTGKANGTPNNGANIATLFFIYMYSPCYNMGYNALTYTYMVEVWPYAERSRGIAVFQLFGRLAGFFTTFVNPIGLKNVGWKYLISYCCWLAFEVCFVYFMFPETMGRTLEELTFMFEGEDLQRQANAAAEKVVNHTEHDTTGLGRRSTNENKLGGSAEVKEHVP

O=C(O)[C@H](O)[C@@H](O)[C@H](O)[C@H](O)CO [A1, gluconic acid]
gluconokinase assay, HPAEC of products [1]: YDR248C has gluconokinase activity in vitro

O=C(O)[C@H](O)[C@@H](O)[C@H](O[C@@H]1O[C@H](CO)[C@@H](O)[C@H](O)[C@H]1O)[C@H](O)CO [A2, cellobionic acid]
phosphorolysis, HPAEC of products (CAP (NCU09425)): specifically cleaved cellobionic acid to gluconic acid and glucose 1-phosphate
yeast cell-based uptake assay, HPAEC of remaining sugar (CBT-1 (NCU05853)): only NCU05853 [...] was capable of transporting cellobionic acid into the cell
